How the values were obtained:
[1] = system: oil field isolated anaerobic SRB consortium; assay: Biocidal efficacy against anaerobic bacteria: minimum biocide concentration for complete bacteria kill (MBC), 40° C., 24 hour; format: cell-based, anaerobic sulfate-reducing bacteria (SRB); conditions: for MBC (active ppm) Glutaraldehyde: glutaraldehyde concentration alone or in combination
Protocol: (§1) The synergy indexes reported in the following examples are calculated using the following equation: Synergy Index=Ca/CA+Cb/CB
(§2) where Ca: Concentration of biocide A required to achieve a certain level or complete bacterial kill when used in combination;
(§3) CA: Concentration of biocide A required to achieve a certain level or complete bacterial kill when used alone;
(§4) Cb: Concentration of biocide B required to achieve a certain level or complete bacterial kill when used in combination; and
(§5) CB: Concentration of biocide B required to achieve a certain level or complete bacterial kill when used alone.
(§6) A synergy index (SI) of 1 indicates additivity, a synergy index of less than 1 indicates synergy, and a synergy index greater than 1 indicates antagonism.
(§7) Various methods known to those skilled in the art can be used for evaluating biocidal efficacy. In the examples below, aliquots of the biocide-treated samples are removed at predetermined time points and the biocide concentration required to achieve a certain level or complete bacterial kill is determined by culture-based methods including serial dilution. In some examples, the method is based or adapted (e.g., for high temperature testing or for the presence of sulfide) from the methodology described in international patent publication WO 2009/039004, which is incorporated herein by reference.
Inside an anaerobic chamber, a deaerated sterile salt solution (3.1183 g of NaCl, 1.3082 mg of NaHCO3, 47.70 mg of KCl, 72.00 mg of CaCl2, 54.49 mg of MgSO4, 172.28 mg of Na2SO4, 43.92 mg of Na2CO3 in 1 L water) is contaminated with an oil field isolated anaerobic SRB consortium at final bacterial concentrations of 10^5-10^6 CFU/mL. Aliquots of this contaminated water are then treated with biocide solution (single or in combination) at various concentrations.

[2] = system: oil field isolated anaerobic SRB consortium; assay: Biocidal efficacy against anaerobic bacteria for high temperature and sulfide-rich conditions: lowest concentration for 99.9% bacterial reduction in 2 hours; format: cell-based, anaerobic sulfate-reducing bacteria (SRB); conditions: 80° C., 10 ppm sulfide ion; for Dosage required for 99.9% bacterial kill in 2 h (active ppm) Glutaraldehyde: glutaraldehyde concentration alone or in combination
Protocol: as §1, §2, §3, §4, §5, §6, §7
Inside an anaerobic chamber, biocide solutions (single or in combination) are prepared at various concentrations in a salt solution (3.1183 g of NaCl, 1.3082 mg of NaHCO3, 47.70 mg of KCl, 72.00 mg of CaCl2, 54.49 mg of MgSO4, 172.28 mg of Na2SO4, 43.92 mg of Na2CO3 in 1 L water). The biocide solutions are challenged with 10^4 to 10^5 CFU/mL of an oil field isolated anaerobic SRB consortium and 10 ppm sulfide ion. The mixtures are incubated at 80° C. under anaerobic conditions for 2 hours after which the biocidal efficacy against the field SRB consortium is evaluated. The biocidal efficacy is determined by selecting the lowest biocide concentration required to achieve at least a 99.9% bacterial reduction in 2 hours. Synergy index is then calculated.

[3] = glutaraldehyde/CTAC series, CTAC concentration alone or in combination
[4] = glutaraldehyde/HHT series, HHT concentration alone or in combination
[5] = glutaraldehyde/tris nitro series
[6] = glutaraldehyde/tris nitro series, tris nitro concentration alone or in combination

Structure (SMILES): ClC=CC[N+]12CN3CN(CN(C3)C1)C2 [CTAC, 1-(3-chloroallyl)-3,5,7-triaza-1-azoniaadamantane]
- MBC (active ppm) CTAC [1, 3]: 133.3 active ppm
- Dosage required for 99.9% bacterial kill in 2 h (active ppm) CTAC [2, 3]: 375.0 active ppm

Structure (SMILES): OCCN1CN(CCO)CN(CCO)C1 [HHT, hexahydro-1,3,5-tris(2-hydroxyethyl)-s-triazine]
- MBC (active ppm) HHT [1, 4]: 133.3 active ppm
- Dosage required for 99.9% bacterial kill in 2 h (active ppm) HHT [2, 4]: 125.0 active ppm

Structure (SMILES): O=CCCCC=O [glutaraldehyde]
- MBC (active ppm) Glutaraldehyde ([1]; glutaraldehyde/CTAC series): 5.3 active ppm
- MBC (active ppm) Glutaraldehyde ([1]; glutaraldehyde/HHT series): 4.0 active ppm
- MBC (active ppm) Glutaraldehyde [1, 5]: 4.0 active ppm
- Dosage required for 99.9% bacterial kill in 2 h (active ppm) Glutaraldehyde ([2]; glutaraldehyde/CTAC series): 8.7 active ppm
- Dosage required for 99.9% bacterial kill in 2 h (active ppm) Glutaraldehyde ([2]; glutaraldehyde/HHT series): 15.6 active ppm
- Dosage required for 99.9% bacterial kill in 2 h (active ppm) Glutaraldehyde [2, 5]: 22.5 active ppm

Structure (SMILES): O=[N+]([O-])C(CO)(CO)CO [tris nitro, tris(hydroxymethyl)nitromethane]
- MBC (active ppm) Tris Nitro [1, 6]: 44.4 active ppm
- Dosage required for 99.9% bacterial kill in 2 h (active ppm) Tris Nitro [2, 6]: 180.0 active ppm

Reference: US8889679B2, “Glutaraldehyde based biocidal compositions and methods of use” (Dow Global Technologies LLC, priority 2009, dated 2014)
